In patent US11802110B2, “2-amino-N-(arylsulfinyl)-acetamide compounds as inhibitors of bacterial aminoacyl-tRNA synthetase” (priority 2016, dated 2023):
≈ marks a conversion by molar mass, not a printed value. Where two headings read alike, the source gives them in different places.

What was measured:
[1] = test system: Escherichia coli ATCC 25922 TolC deficient mutant (E. coli EFFLUX del); test: microbe, parasite or virus in culture; format: cell-based
Method: (§1) Minimum Inhibitory Concentrations (MICs) were determined by the broth micro-dilution method performed according to Clinical Laboratory Standards Institute guidelines. For testing, 5 mg/mL DMSO solutions were prepared by dissolving solids in DMSO. Standard antibiotics were prepared according to CLSI guidelines as 5 mg/mL stock solutions. Upon DMSO stock solutions preparation, the working solutions in MH media were prepared by adding 38.4 μL of stock solution to 1461.6 μL of MH media. Out of these working solutions 100 μL were transferred to wells in the third column of 96-well assay plates. Assay plates were previously filled with 50 μL of MH media in all wells except for the wells in the third column. Upon compounds and antibiotics addition, 50 μL was transferred from the third to the fourth column, then from the fourth to the fifth and so on.
(§2) MIC value was determined by visual inspection of bacterial growth within 96-well plates. The first column in which there was no visible growth of bacteria was determined as MIC value for compound or antibiotic tested in that particular row. ATCC strains were used as reference strains for which there is a determined value of MIC values for standard antibiotics. The assay is considered valid when MIC values for standard antibiotics are within CLSI designated range for ATCC strain tested.

[2] = test system: Pseudomonas aeruginosa ATCC 27853; test: Study 4 - MIC by broth micro-dilution (CLSI); format: cell-based
Method: as §1, §2

[3] = test system: Enterobacter cloacae B1966 clinical isolate; test: Study 4 - MIC by broth micro-dilution (CLSI); format: cell-based
Method: as §1, §2

[4] = test system: Haemophilus influenzae ATCC 49247; test: Study 4 - MIC by broth micro-dilution (CLSI); format: cell-based; settings: G = H. influenzae ATCC 49247
Method: as §1, §2

[5] = test system: Escherichia coli ATCC 25922; test: Study 4 - MIC by broth micro-dilution (CLSI); format: cell-based
Method: as §1, §2

[6] = test system: Klebsiella pneumoniae ATCC 700603; test: Study 4 - MIC by broth micro-dilution (CLSI); format: cell-based
Method: as §1, §2

[7] = test system: Acinetobacter baumannii B1931 clinical isolate; test: Study 4 - MIC by broth micro-dilution (CLSI); format: cell-based
Method: as §1, §2

[8] = Human cell viability (cytotoxicity), ATP levels by CellTiter-Glo; format: cell-based; settings: HepG2 cells (ATCC HB-8065), 24 hours incubation, read-out: IC50 (μg/mL), Cytotoxicity in HepG2 ATCC HB-8065 Cell Line
Method: Compounds were assessed for potential non-specific cytotoxic effects against a human hepatic cell line (HepG2 ATCC HB-8065). 96-well plates were seeded with HepG2 cells in concentration of 15,000 cells per well in 100 μL of MEM growth media completed with 1% NEAA and 1% sodium pyruvate. Border wells were filled with 100 μL of sterile PBS. Two days upon cells incubation, the compounds were added. Compound dilutions were prepared in 96-well V-bottom plate in pure DMSO. Growth media from 5 plates were aspirated and replaced with 98.7 μL of fresh growth media. 1.28 μL of compounds prepared in V-bottom plates were transferred with multichannel pipette into test plates (78.1× dilution). Final DMSO concentration was 1.28% per well. In control wells, 1.28 μL of DMSO was added in 98.7 μL of media. Compounds were tested in duplicates. Cells were incubated with compounds for 24 hours when cell viability was assessed by measuring ATP levels. ATP levels were measured by adding 50 μL of CellTiter-Glo reagent to each well and after 5 minutes of incubation luminescence was measured with SpectraMax i3. The potential effect of tested compounds on cell viability was determined by comparing the signal obtained in presence of different concentrations of the compounds with those obtained in the presence of DMSO only. The potential effects were then calculated and presented as IC50 values (μg/mL).

E. Coli LeuRS = E. Coli LeuRS (Escherichia coli (strain K12), UniProt P07813); test: Study 2 - Isothermal titration calorimetry (ITC); format: binding; settings: 25° C., pH 7.5, mean ± SD
Method: Escherichia coli BL21(DE3) cells transformed with plasmid pQE-60 containing the open-reading frame sequence of one targeted aaRS (i.e., LeuRS) were induced with 1 mM IPTG (isopropyl β-D-1-thiogalactopyranoside) for 3 hours at 37° C. Bacterial cells were harvested and lysed with 20 mM HEPES (4-(2-hydroxyethyl)-1-piperazinylethane-sulfonic acid) (pH 7.5), 300 mM NaCl, 15 mM imidazole and 1 mM DTT (1,4-dithio-D-threitol). The pathogenic aaRS was first purified by nickel affinity standard chromatography. The eluted protein was concentrated and then further purified by gel filtration using 50 mM HEPES (pH 7.5), 150 mM NaCl buffer.
ITC studies were carried out using a Microcal ITC200 instrument (GE Healthcare). Protein concentration was determined by spectrophotometry by measuring the absorbance at 280 nm using a theoretical molar extinction coefficient of 169,140 M^−1cm^−1. Ligand stock solutions were prepared in DMSO at 62.5 mM concentration. The titrations were performed at 25° C. with 7.5-100 μM E. Coli LeuRS in 50 mM HEPES, 150 mM NaCl, pH 7.5 buffer containing 1% DMSO (v/v). The protein solution in the 280 μL sample cell was titrated with the inhibitor solution (diluted to 75-3000 μM in the same buffer as the protein) using 1-2 μL injections every 120-140 seconds. All titrations were repeated at least two times. To correct for heats of dilution and mixing, the final baseline consisting of small peaks of identical size at the end of each experiment was subtracted. The experimental data were fitted to a theoretical titration curve (one site model) using MicroCal Origin 7 SR4 software.
Note that Compounds R-4.1 and S-4.1 (in Table 15, below) correspond to Compounds V-i and V-ii (in Tables 13 and 14, above), respectively.

[9] = Pseudomonas aeruginosa, ATCC27853
[10] = Haemophilus influenzae, ATCC49247, read-out: MIC
[11] = Klebsiella pneumoniae, ATCC700603

Sequence of E. Coli LeuRS (P07813 whole entry): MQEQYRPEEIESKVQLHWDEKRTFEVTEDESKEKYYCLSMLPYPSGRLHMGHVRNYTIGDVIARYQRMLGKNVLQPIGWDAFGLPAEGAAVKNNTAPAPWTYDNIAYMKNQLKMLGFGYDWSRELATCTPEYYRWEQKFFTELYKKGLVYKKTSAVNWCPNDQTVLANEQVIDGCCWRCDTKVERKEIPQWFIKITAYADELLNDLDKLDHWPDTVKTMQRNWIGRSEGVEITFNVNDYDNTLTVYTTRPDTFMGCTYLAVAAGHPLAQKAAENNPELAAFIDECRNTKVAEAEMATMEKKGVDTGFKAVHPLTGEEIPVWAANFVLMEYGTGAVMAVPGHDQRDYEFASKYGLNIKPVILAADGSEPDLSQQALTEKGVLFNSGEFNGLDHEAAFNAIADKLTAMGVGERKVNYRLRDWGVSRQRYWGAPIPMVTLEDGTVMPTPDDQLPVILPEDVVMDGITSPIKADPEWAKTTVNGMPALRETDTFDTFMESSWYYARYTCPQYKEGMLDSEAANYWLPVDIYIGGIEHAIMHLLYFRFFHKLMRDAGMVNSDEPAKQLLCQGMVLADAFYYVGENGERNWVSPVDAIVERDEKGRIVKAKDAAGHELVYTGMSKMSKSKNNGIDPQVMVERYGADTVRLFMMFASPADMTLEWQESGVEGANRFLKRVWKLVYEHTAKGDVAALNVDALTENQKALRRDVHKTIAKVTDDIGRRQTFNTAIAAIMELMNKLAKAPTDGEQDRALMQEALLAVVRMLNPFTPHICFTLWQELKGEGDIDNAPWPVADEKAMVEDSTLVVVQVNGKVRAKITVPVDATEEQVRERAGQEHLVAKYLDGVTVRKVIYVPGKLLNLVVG

CC(C)CC(N)C(=O)N[S+]([O-])c1cc(Cl)cc(Cl)c1 (stereo not shown) [4.36]
MIC ([1]; Escherichia coli, ATCC25922): 64 µg/mL (≈ 198 µM)
MIC [2, 9]: > 64 µg/mL
MIC ([3]; Enterobacter cloacae): > 64 µg/mL
MIC [4, 10]: > 64 µg/mL
MIC ([5]; Escherichia coli, ATCC25922): 64 µg/mL (≈ 198 µM)
MIC [6, 11]: > 64 µg/mL
MIC ([7]; Acinetobacter baumannii): > 64 µg/mL
IC50 at 24 h [8]: 44 µg/mL (≈ 136 µM)

CC(C)CC(N)C(=O)N[S+]([O-])c1cccc(F)c1 (stereo not shown) [4.11]
Kd (E. Coli LeuRS): 2.17 ± 0.08 nM
ΔG (E. Coli LeuRS): -11.82 ± 0.04 kcal/mol
ΔH (E. Coli LeuRS): -16.22 ± 0.60 kcal/mol
MIC [2, 9]: 64 µg/mL (≈ 235 µM)
MIC ([3]; Enterobacter cloacae): 4 µg/mL (≈ 14.7 µM)
MIC [4, 10]: 4 µg/mL (≈ 14.7 µM)
MIC ([5]; Escherichia coli, ATCC25922): 1 µg/mL (≈ 3.67 µM)
MIC [6, 11]: 2 µg/mL (≈ 7.34 µM)
MIC ([7]; Acinetobacter baumannii): 8 µg/mL (≈ 29.4 µM)
IC50 at 24 h [8]: > 64 µg/mL

CC(C)CC(N)C(=O)N[S+]([O-])c1cccc(Br)c1 (stereo not shown) [4.15]
Kd (E. Coli LeuRS): 10.6 ± 0.39 nM
ΔG (E. Coli LeuRS): -10.88 ± 0.03 kcal/mol
ΔH (E. Coli LeuRS): -10.74 ± 0.16 kcal/mol
MIC [2, 9]: 64 µg/mL (≈ 192 µM)
MIC ([3]; Enterobacter cloacae): 32 µg/mL (≈ 96 µM)
MIC [4, 10]: 8 µg/mL (≈ 24 µM)
MIC ([5]; Escherichia coli, ATCC25922): 8 µg/mL (≈ 24 µM)
MIC [6, 11]: 16 µg/mL (≈ 48 µM)
MIC ([7]; Acinetobacter baumannii): 64 µg/mL (≈ 192 µM)
IC50 at 24 h [8]: > 64 µg/mL

NC(Cc1ccccc1)C(=O)N[S+]([O-])c1ccccc1 (stereo not shown) [4.8]
IC50 at 24 h [8]: > 64 µg/mL

CC(C)CC(N)C(=O)N[S+]([O-])c1ccc(F)c(Cl)c1 (stereo not shown) [4.37]
MIC ([1]; Escherichia coli, ATCC25922): 8 µg/mL (≈ 26.1 µM)
MIC [2, 9]: > 64 µg/mL
MIC ([3]; Enterobacter cloacae): 64 µg/mL (≈ 209 µM)
MIC [4, 10]: 32 µg/mL (≈ 104 µM)
MIC ([5]; Escherichia coli, ATCC25922): 8 µg/mL (≈ 26.1 µM)
MIC [6, 11]: > 64 µg/mL
MIC ([7]; Acinetobacter baumannii): 64 µg/mL (≈ 209 µM)
IC50 at 24 h [8]: > 64 µg/mL

CC(C)CC(N)C(=O)N[S+]([O-])c1ccc2ccccc2c1 (stereo not shown) [4.40]
IC50 at 24 h [8]: > 64 µg/mL

CSCCC(N)C(=O)N[S+]([O-])c1ccccc1 (stereo not shown) [4.3]
IC50 at 24 h [8]: > 64 µg/mL

COc1cccc([S+]([O-])NC(=O)C(N)CC(C)C)c1 (stereo not shown) [4.14]
Kd (E. Coli LeuRS): 4.02 ± 0.38 nM
ΔG (E. Coli LeuRS): -11.45 ± 0.06 kcal/mol
ΔH (E. Coli LeuRS): -12.35 ± 0.04 kcal/mol
MIC [2, 9]: 64 µg/mL (≈ 225 µM)
MIC ([3]; Enterobacter cloacae): 32 µg/mL (≈ 113 µM)
MIC [4, 10]: 8 µg/mL (≈ 28.1 µM)
MIC ([5]; Escherichia coli, ATCC25922): 8 µg/mL (≈ 28.1 µM)
MIC [6, 11]: 16 µg/mL (≈ 56.3 µM)
MIC ([7]; Acinetobacter baumannii): 32 µg/mL (≈ 113 µM)
IC50 at 24 h [8]: > 64 µg/mL

CC(C)(O/N=C(\C(=O)N[C@@H]1C(=O)N2C(C(=O)[O-])=C(C[n+]3ccccc3)CS[C@H]12)c1csc(N)n1)C(=O)O [Ceftazidime]
MIC ([1]; B = E. coli EFFLUX del): 0.25 µg/mL (≈ 0.457 µM)
MIC ([2]; E = P. aeruginosa ATCC 27853): >64 µg/mL
MIC ([3]; C = Enterobacter cloacae B1966): 0.5 µg/mL (≈ 0.915 µM)
MIC [4]: 16 µg/mL (≈ 29.3 µM)
MIC ([5]; A = E. coli ATCC 25922): 0.25 µg/mL (≈ 0.457 µM)
MIC ([6]; D = KI. pneumoniae ATCC 700603): >64 µg/mL
MIC ([7]; F = A. baumannii B1931): 2 µg/mL (≈ 3.66 µM)

CC(C)CC(N)C(=O)N[S+]([O-])c1cccc2ccccc12 (stereo not shown) [4.39]
Kd (E. Coli LeuRS): 12.8 ± 1.6 nM
ΔG (E. Coli LeuRS): -10.77 ± 0.08 kcal/mol
ΔH (E. Coli LeuRS): -9.29 ± 0.62 kcal/mol
MIC [2, 9]: > 64 µg/mL
MIC ([3]; Enterobacter cloacae): 64 µg/mL (≈ 210 µM)
MIC [4, 10]: 8 µg/mL (≈ 26.3 µM)
MIC ([5]; Escherichia coli, ATCC25922): 16 µg/mL (≈ 52.6 µM)
MIC [6, 11]: 64 µg/mL (≈ 210 µM)
MIC ([7]; Acinetobacter baumannii): 64 µg/mL (≈ 210 µM)
IC50 at 24 h [8]: 46 µg/mL (≈ 151 µM)

CC(C)CC(N)C(=O)N[S+]([O-])c1cccc(Cl)c1 (stereo not shown) [4.12]
MIC [2, 9]: 16 µg/mL (≈ 55.4 µM)
MIC ([3]; Enterobacter cloacae): 8 µg/mL (≈ 27.7 µM)
MIC [4, 10]: 4 µg/mL (≈ 13.9 µM)
MIC ([5]; Escherichia coli, ATCC25922): 2 µg/mL (≈ 6.93 µM)
MIC [6, 11]: 4 µg/mL (≈ 13.9 µM)
MIC ([7]; Acinetobacter baumannii): 16 µg/mL (≈ 55.4 µM)
IC50 at 24 h [8]: > 64 µg/mL

Cc1cccc([S+]([O-])NC(=O)C(N)CC(C)C)c1 (stereo not shown) [4.13]
Kd (E. Coli LeuRS): 6.62 ± 1.36 nM
ΔG (E. Coli LeuRS): -11.16 ± 0.12 kcal/mol
ΔH (E. Coli LeuRS): -8.69 ± 1.09 kcal/mol
MIC [2, 9]: > 64 µg/mL
MIC ([3]; Enterobacter cloacae): 32 µg/mL (≈ 119 µM)
MIC [4, 10]: 16 µg/mL (≈ 59.6 µM)
MIC ([5]; Escherichia coli, ATCC25922): 8 µg/mL (≈ 29.8 µM)
MIC [6, 11]: 16 µg/mL (≈ 59.6 µM)
MIC ([7]; Acinetobacter baumannii): 32 µg/mL (≈ 119 µM)
IC50 at 24 h [8]: > 64 µg/mL

CCCC(N)C(=O)N[S+]([O-])c1ccccc1 (stereo not shown) [4.4]
Kd (E. Coli LeuRS): 159 ± 29.4 nM
ΔG (E. Coli LeuRS): -9.28 ± 0.11 kcal/mol
ΔH (E. Coli LeuRS): -9.06 ± 0.28 kcal/mol
IC50 at 24 h [8]: > 64 µg/mL

NC(C(=O)N[S+]([O-])c1ccccc1)c1ccccc1 (stereo not shown) [4.9]
IC50 at 24 h [8]: > 64 µg/mL
